Results as given in patent publication US4996225A, “Tri-phenyl alkane derivatives and their oestrogenic, anti-oestrogenic and progestanic uses” (Farmos Group Ltd., priority 1982, dated 1991).
“Also recorded” adds a separate entry of the source.

Experiments:
immature mouse uterus [1] = experiment: progestanic effect, uterus weight of immature mice (alone or with medroxyprogesterone acetate); type: in vivo; set-up: reduction in the weight of a mouse uterus, given alone / reduction in the weight of uterus with medroxyprogesterone / reduction in the weights of mice uterus, given alone: concentration or dose not given beside the values
immature mouse uterus [2] = experiment: oestrogenic effect, uterus weight of immature mice; type: in vivo; settings: up to 5 mg/kg
Experimental: (§1) The oestrogen-antiestrogen (progesterone) effect of the new compounds in vivo was determined as follows: (1) The oestrogenic properties were determined by administering the new compounds, suspended in sesame oil, subcutaneously to 21 days old immature mice on three consecutive days. The mice were killed on the fourth day and the uterus was weighed. […] The weight correlates with the oestrogenic effect of the compound tested. […] In this case, the ability of the molecules to inhibit oestrogen-induced uterus weight increase was also investigated.

[3] = system: estradiol induced weight increase in immature mouse uterus; experiment: antiestrogenic effect, inhibition of oestrogen-induced uterus weight increase in immature mice; type: in vivo
Experimental: as §1

rat prostatic carcinoma = experiment: antitumour effect against transplantable prostatic carcinoma; type: in vivo; settings: 1 mg/kg, 12 days' treatment
Excerpt: The anti-tumour effect was investigated in vivo against DMBA-induced rat mammary adenocarcinomas, transplantable mammary and ovarial adenocarcinoma and transplantable prostatic squamous cell carcinoma by the following methods: The activity of the molecules against other tumours was studied by administering the molecules by stomach tube to animals implanted with transplantable uterus sarcoma (mice) or prostatic adenocarcinoma (rats). Daily or twice weekly administration schedules were employed. NMRI mice (about 20 g, females) and Fischer 344 rats (about 200 g, males) were used. Estramustine phosphate served as positive control. Transplantable rat mammary adenocarcinoma was developed by inoculating pieces of DMBA-induced carcinomas subcutaneously to healthy mature female rats. A tumour which expressed malignant growth was selected for further transplantations. Other transplantable tumours were inoculated subcutaneously as washed cell suspension (10^7 cells/animal).

[4] = system: DMBA-induced rat mammary adenocarcinomas; experiment: antitumour effect in vivo against DMBA-induced rat mammary adenocarcinoma; settings: compared with compound 7
Experimental: The anti-tumour effect was investigated in vivo against DMBA-induced rat mammary adenocarcinomas, transplantable mammary and ovarial adenocarcinoma and transplantable prostatic squamous cell carcinoma by the following methods:
Mammary adenocarcinomas were induced by DMBA in 35-40 days old female rats. […] Tumour size and numbers of tumours were evaluated twice a week. Tumour sizes in the control group, treated with solvent, were compared with the test groups.
The size refers to the width×height of the tumour. The growth rate is a difference between sizes compared with that of the first day of the treatment.

[5] = system: MCF-7 cell line (human mammary adenocarcinoma); experiment: anti-tumour effect in vitro, growth of MCF-7 cell line (bioluminescence assay, intracellular ATP); type: cell-based; settings: read-out: Antitumour effect against MCF-7 cell line (IC50 = concentration of compound where 50% inhibition of cell growth could be seen)
Experimental: The anti-tumour effect was studied in vitro as follows:
The amount of living cells after 4 h, 24 h and 48 h incubations were determined by bioluminescence assay (intracellular ATP determination).
inhibition of cell growth could be seen.

oestrogen receptors = molecular target: T1, oestrogen receptors (Rattus norvegicus, UniProt P06211); experiment: affinity for oestrogen receptors, competition with 3H-17-β-estradiol in rat uterus cytosol (dextran-charcoal method); type: binding; settings: read-out: Estrogen receptor affinity (concentration of compound where 50% competition (inhibition) with 3H-estradiol occurred)
T1 construct: rat uterus cytosol preparation; from tissue; host or cells: rat uterus cytosol
T1 sequence (P06211 1-600): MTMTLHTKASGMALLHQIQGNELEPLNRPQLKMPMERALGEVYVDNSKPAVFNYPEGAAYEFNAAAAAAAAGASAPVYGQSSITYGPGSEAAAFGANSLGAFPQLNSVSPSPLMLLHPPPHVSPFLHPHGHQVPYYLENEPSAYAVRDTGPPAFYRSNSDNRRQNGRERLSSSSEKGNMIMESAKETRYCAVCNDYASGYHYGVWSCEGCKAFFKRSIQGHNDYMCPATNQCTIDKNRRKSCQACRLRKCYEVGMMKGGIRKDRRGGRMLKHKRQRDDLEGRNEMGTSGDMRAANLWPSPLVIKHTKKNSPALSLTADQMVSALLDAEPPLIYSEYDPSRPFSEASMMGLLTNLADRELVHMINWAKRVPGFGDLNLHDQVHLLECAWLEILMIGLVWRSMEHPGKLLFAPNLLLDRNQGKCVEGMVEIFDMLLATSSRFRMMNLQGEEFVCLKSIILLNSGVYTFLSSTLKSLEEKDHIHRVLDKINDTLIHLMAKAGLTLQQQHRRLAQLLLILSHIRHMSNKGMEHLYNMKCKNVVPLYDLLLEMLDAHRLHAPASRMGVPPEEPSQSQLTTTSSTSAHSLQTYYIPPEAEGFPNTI
Experimental: The affinity of the new compounds for oestrogen receptors was determined by the ability to compete with ^3 H-labelled 17-β-estradiol in rat uterus cytosol preparation. After incubation, receptor-bound and receptor-unbound ligands were separated by a known dextrancharcoal method.

[6] = with medroxyprogesterone 0.06 mg/kg

IC50 [5]: 5 to 10 µM
IC50 (oestrogen receptors): 0.1 to 1 µM
SMILES: Oc1ccc([C@@]2(c3ccccc3)OCC[C@@H]2c2ccccc2)cc1 (relative stereo) [Compound 2, 2,3-diphenyl-2-(4-hydroxyphenyl)tetrahydrofuran]
decrease of weight of mouse uterus (immature mouse uterus [1]; 0.05 mg/kg): 50%
effect given alone: progestanic (in words) (immature mouse uterus [1]; given alone): progestanic
reduction in the weights of mice uterus, given alone (immature mouse uterus [1]; given alone, Table 2A): 50%
progestanic effect (in words) (immature mouse uterus [1]; immature mouse uterus): could purely be considered to be due to its progestanic effect
interaction with medroxyprogesterone (in words) (immature mouse uterus [1]; with medroxyprogesterone): synergistic effect with medroxyprogesterone
effect with medroxyprogesterone (in words) (immature mouse uterus [1]; [6]): synergistic
reduction in the weights of mice uterus with medroxyprogesterone, compared to control (immature mouse uterus [1]; [6]): 53%
estrogenic effect of their own (in words) (immature mouse uterus [2]): no estrogenic effect of their own; also recorded: no antiestrogenic or estrogenic effect of its own
antiestrogenic effect of its own (in words) ([3]; up to 5 mg/kg): no antiestrogenic or estrogenic effect of its own
effect with estradiol (in words) ([3]; with estradiol 0.05 mg/kg): no synergism
size of prostatic tumour smaller than that of control (rat prostatic carcinoma): 29%
antitumour effect against DMBA-induced mammary cancer (in words) [4]: Antitumour effect less than that of compound 7
